Laboratory results taken from US20260042764A1, “COMPOSITIONS AND METHODS FOR INHIBITION OF KRAS” (TheRas, Inc., priority 2022, published 2026).

Tests used:
[1] = molecular target: T1, Avi-KRAS G12D (1-169) GppNHp/RAF1 RBD-3xFLAG (52-151) (Homo sapiens, UniProt P01116, G12D); assay: Raf1-KRAS G12D-GppNHP disruption HTRF assay (Biological Example 1); assay type: binding; conditions: KRAS G12D-GppNHp/RAF1 RBD HTRF
T1 construct: Avi-KRAS G12D (1-169)
In short: (§1)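 Percent activity versus DMSO (100%) was derived from HTRF signal after KRAS–RAF1 RBD protein mix was incubated 1 h at room temperature with shaking and detection reagents were added for a further 1 h.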

[2] = system: SW620 cells (KRAS G12V); assay: Cell-based pERK HTRF assay in SW620 cell (Biological Example 4); conditions: pERK HTRF
In short: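 In SW620 cells grown in RPMI with 10% FBS, a 4 h compound treatment (0.25% DMSO, 9-point curve from 1 μM) preceded lysis. Phospho-ERK levels were then read by time-resolved FRET at 615 nm emission.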

[3] = molecular target: T2, Avi-KRAS G12R (1-169) GppNHp/RAF1 RBD-3xFLAG (52-151) (Homo sapiens, UniProt P01116, G12R); assay: Raf1-KRAS G12R-GppNHP disruption HTRF assay (Biological Example 1); assay type: binding; conditions: KRAS G12R-GppNHp/RAF1 RBD HTRF
T2 construct: Avi-KRAS G12R (1-169)
In short: as §1

[4] = molecular target: T3, Avi-KRAS G12V (1-169) GppNHp/RAF1 RBD-3xFLAG (52-151) (Homo sapiens, UniProt P01116, G12V); assay: Raf1-KRAS G12V-GppNHP disruption HTRF assay (Biological Example 1); assay type: binding; conditions: KRAS G12V-GppNHp/RAF1 RBD HTRF
T3 construct: Avi-KRAS G12V (1-169)
In short: as §1

[5] = system: GP2d cells (KRAS G12D); assay: Cell-based pERK HTRF assay in GP2d cell (Biological Example 2); conditions: GP2d (KRAS G12D) cells, pERK HTRF
In short: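 Phospho-ERK is measured by HTRF following a 60 min compound exposure at 0.25% DMSO, with a 9-point half-log curve topping at 1 μM or 100 nM.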

[6] = molecular target: T4, Avi-KRAS WT (1-169) GppNHp/RAF1 RBD-3xFLAG (52-151) (Homo sapiens, UniProt P01116); assay: Raf1-KRAS WT-GppNHP disruption HTRF assay (Biological Example 1); assay type: binding; conditions: KRAS WT-GppNHp/RAF1 RBD HTRF
T4 construct: Avi-KRAS WT (1-169)
In short: as §1

[7] = Homo sapiens, SW-620, SW620 (KRAS G12V) cells

T3 sequence (P01116 1-169 isoform P01116-2 G12V): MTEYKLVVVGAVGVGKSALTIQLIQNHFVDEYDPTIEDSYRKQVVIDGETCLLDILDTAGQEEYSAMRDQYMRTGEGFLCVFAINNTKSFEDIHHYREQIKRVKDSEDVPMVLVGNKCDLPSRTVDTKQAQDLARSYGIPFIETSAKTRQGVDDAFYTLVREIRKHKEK
T4 sequence (P01116 1-169 isoform P01116-2): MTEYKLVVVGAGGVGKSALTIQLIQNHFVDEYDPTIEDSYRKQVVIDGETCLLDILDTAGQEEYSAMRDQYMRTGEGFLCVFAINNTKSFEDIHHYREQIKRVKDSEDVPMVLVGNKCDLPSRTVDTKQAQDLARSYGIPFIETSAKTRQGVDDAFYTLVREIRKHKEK
T2 sequence (P01116 1-169 isoform P01116-2 G12R): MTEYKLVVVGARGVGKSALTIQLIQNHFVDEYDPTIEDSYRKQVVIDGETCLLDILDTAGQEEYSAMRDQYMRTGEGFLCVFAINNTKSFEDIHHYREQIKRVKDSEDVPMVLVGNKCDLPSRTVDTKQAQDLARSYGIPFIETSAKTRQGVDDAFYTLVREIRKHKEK
T1 sequence (P01116 1-169 isoform P01116-2 G12D): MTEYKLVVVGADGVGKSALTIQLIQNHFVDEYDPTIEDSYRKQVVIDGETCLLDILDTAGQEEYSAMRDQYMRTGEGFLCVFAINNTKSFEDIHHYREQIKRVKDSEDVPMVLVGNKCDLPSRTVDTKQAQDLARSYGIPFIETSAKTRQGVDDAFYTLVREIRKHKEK

COC(=O)N1CC[C@@H](N(C)c2nc(OC[C@@]34CCCN3C[C@H](F)C4)nc3c(F)c(-c4ccc(F)c5sc(N)c(C#N)c45)c(C(F)(F)F)cc23)[C@H]1C [Compound 410]
IC50 [1]: 100 to 1000 nM | IC50 [2, 7]: < 100 nM | IC50 [3]: 100 to 1000 nM | IC50 [4]: 100 to 1000 nM | IC50 ([5]; GP2d): < 100 nM | IC50 [6]: 100 to 1000 nM

N#Cc1c(N)sc2c(F)ccc(-c3c(C(F)(F)F)cc4c(N5CCO[C@@H]6C[C@@H]65)nc(OC[C@@]56CCCN5C[C@H](F)C6)nc4c3F)c12 [Compound 411]
IC50 [1]: 100 to 1000 nM | IC50 [2, 7]: < 100 nM | IC50 [3]: 100 to 1000 nM | IC50 [4]: 100 to 1000 nM | IC50 ([5]; GP2d): < 100 nM | IC50 [6]: 100 to 1000 nM

N#Cc1c(N)sc2c(F)ccc(-c3c(C(F)(F)F)cc4c(N5CCN6C(=O)CCC6C5)nc(OCC56CCCN5CC(F)C6)nc4c3F)c12 (stereo not drawn) [Compound 412]
IC50 [1]: 100 to 1000 nM | IC50 [2, 7]: < 100 nM | IC50 [3]: 100 to 1000 nM | IC50 [4]: 100 to 1000 nM | IC50 ([5]; GP2d): < 100 nM | IC50 [6]: 100 to 1000 nM

C[C@@]1(CO)CCN1c1nc(OC[C@@]23CCCN2C[C@H](F)C3)nc2c(F)c(-c3ccc(F)c4sc(N)c(C#N)c34)c(C(F)(F)F)cc12 [Compound 413]
IC50 [1]: > 10000 nM | IC50 [2, 7]: > 1000 nM | IC50 [3]: > 10000 nM | IC50 [4]: > 10000 nM | IC50 ([5]; GP2d): > 1000 nM | IC50 [6]: > 10000 nM

CCN(c1nc(OC[C@@]23CCCN2C[C@H](F)C3)nc2c(F)c(-c3ccc(F)c4sc(N)c(C#N)c34)c(C(F)(F)F)cc12)[C@@H]1CCN(C(C)=O)[C@H]1C [Compound 414]
IC50 [1]: 100 to 1000 nM | IC50 [2, 7]: 100 to 1000 nM | IC50 [3]: 100 to 1000 nM | IC50 [4]: 100 to 1000 nM | IC50 ([5]; GP2d): < 100 nM | IC50 [6]: 100 to 1000 nM

CCN(c1nc(OC[C@@]23CCCN2C[C@H](F)C3)nc2c(F)c(-c3ccc(F)c4sc(N)c(C#N)c34)c(C(F)(F)F)cc12)[C@@H]1CCN(C(=O)C2CC2)[C@H]1C [Compound 415]
IC50 [1]: 100 to 1000 nM | IC50 [2, 7]: < 100 nM | IC50 [3]: 100 to 1000 nM | IC50 [4]: 1000 to 10000 nM | IC50 ([5]; GP2d): < 100 nM | IC50 [6]: 100 to 1000 nM

CCN(c1nc(OC[C@@]23CCCN2C[C@H](F)C3)nc2c(F)c(-c3ccc(F)c4sc(N)c(C#N)c34)c(Cl)cc12)[C@@H]1CCN(C(C)=O)[C@H]1C [Compound 416]
IC50 [1]: 100 to 1000 nM | IC50 [2, 7]: 100 to 1000 nM | IC50 [3]: 1000 to 10000 nM | IC50 [4]: 1000 to 10000 nM | IC50 ([5]; GP2d): < 100 nM | IC50 [6]: 100 to 1000 nM

CCC(=O)N1CC[C@@H](N(CC)c2nc(OC[C@@]34CCCN3C[C@H](F)C4)nc3c(F)c(-c4ccc(F)c5sc(N)c(C#N)c45)c(Cl)cc23)[C@@H]1C [Compound 417]
IC50 [1]: 100 to 1000 nM | IC50 [2, 7]: 100 to 1000 nM | IC50 [3]: 1000 to 10000 nM | IC50 [4]: 1000 to 10000 nM | IC50 ([5]; GP2d): < 100 nM | IC50 [6]: 100 to 1000 nM

CN(C)C(=O)c1cn2c(n1)CN(c1nc(OC[C@@]34CCCN3C[C@H](F)C4)nc3c(F)c(-c4ccc(F)c5sc(N)c(C#N)c45)c(C(F)(F)F)cc13)CC2 [Compound 419]
IC50 [1]: 100 to 1000 nM | IC50 [2, 7]: < 100 nM | IC50 [3]: 100 to 1000 nM | IC50 [4]: 100 to 1000 nM | IC50 ([5]; GP2d): < 100 nM | IC50 [6]: 100 to 1000 nM

C[C@@H]1[C@H](N(C)c2nc(OC[C@@]34CCCN3C[C@H](F)C4)nc3c(F)c(-c4ccc(F)c5sc(N)c(C#N)c45)c(Cl)cc23)CCN1C(=O)C(C)(F)F [Compound 420]
IC50 [1]: 1000 to 10000 nM | IC50 [2, 7]: 100 to 1000 nM | IC50 [3]: 1000 to 10000 nM | IC50 [4]: 1000 to 10000 nM | IC50 ([5]; GP2d): 100 to 1000 nM | IC50 [6]: 1000 to 10000 nM

C[C@@H]1[C@H](N(C)c2nc(OC[C@@]34CCCN3C[C@H](F)C4)nc3c(F)c(-c4ccc(F)c5sc(N)c(C#N)c45)c(Cl)cc23)CCN1C(=O)C(C)(C)F [Compound 421]
IC50 [1]: 1000 to 10000 nM | IC50 [2, 7]: 100 to 1000 nM | IC50 [3]: 1000 to 10000 nM | IC50 [4]: 1000 to 10000 nM | IC50 ([5]; GP2d): 100 to 1000 nM | IC50 [6]: 1000 to 10000 nM

C[C@@H]1[C@H](N(C)c2nc(OC[C@@]34CCCN3C[C@H](F)C4)nc3c(F)c(-c4ccc(F)c5sc(N)c(C#N)c45)c(Cl)cc23)CCN1C(=O)C1(F)CC1 [Compound 422]
IC50 [1]: 1000 to 10000 nM | IC50 [2, 7]: 100 to 1000 nM | IC50 [3]: 1000 to 10000 nM | IC50 [4]: 1000 to 10000 nM | IC50 ([5]; GP2d): 100 to 1000 nM | IC50 [6]: 1000 to 10000 nM

C[C@@H]1CN(c2nc(OC[C@@]34CCCN3C[C@H](F)C4)nc3c(F)c(-c4ccc(F)c5sc(N)c(C#N)c45)c(C(F)(F)F)cc23)Cc2cc(C(=O)N(C)C)nn21 [Compound 423]
IC50 [1]: 100 to 1000 nM | IC50 [2, 7]: < 100 nM | IC50 [3]: 100 to 1000 nM | IC50 [4]: 100 to 1000 nM | IC50 ([5]; GP2d): < 100 nM | IC50 [6]: 100 to 1000 nM

C[C@@H]1[C@H](N(C)c2nc(OC[C@@]34CCCN3C[C@H](F)C4)nc3c(F)c(-c4ccc(F)c5sc(N)c(C#N)c45)c(C(F)(F)F)cc23)CCN1C(=O)C(C)(C)F [Compound 424]
IC50 [1]: 100 to 1000 nM | IC50 [2, 7]: 100 to 1000 nM | IC50 [3]: 100 to 1000 nM | IC50 [4]: 1000 to 10000 nM | IC50 ([5]; GP2d): < 100 nM | IC50 [6]: 100 to 1000 nM

C[C@@H]1[C@H](N(C)c2nc(OC[C@@]34CCCN3C[C@H](F)C4)nc3c(F)c(-c4ccc(F)c5sc(N)c(C#N)c45)c(C(F)(F)F)cc23)CCN1C(=O)C1(F)CC1 [Compound 425]
IC50 [1]: 100 to 1000 nM | IC50 [2, 7]: < 100 nM | IC50 [3]: 100 to 1000 nM | IC50 [4]: 1000 to 10000 nM | IC50 ([5]; GP2d): < 100 nM | IC50 [6]: 100 to 1000 nM

CN(C)C(=O)c1cc2n(n1)CCN(c1nc(OC[C@@]34CCCN3C[C@H](F)C4)nc3c(F)c(-c4ccc(F)c5sc(N)c(C#N)c45)c(C(F)(F)F)cc13)CC2 [Compound 426]
IC50 [1]: 1000 to 10000 nM | IC50 [2, 7]: 100 to 1000 nM | IC50 [3]: 1000 to 10000 nM | IC50 [4]: 1000 to 10000 nM | IC50 ([5]; GP2d): 100 to 1000 nM | IC50 [6]: 1000 to 10000 nM

CNC(=O)N1CC[C@@H](N(C)c2nc(OC[C@@]34CCCN3C[C@H](F)C4)nc3c(F)c(-c4ccc(F)c5sc(N)c(C#N)c45)c(C(F)(F)F)cc23)[C@H]1C [Compound 427]
IC50 [1]: 100 to 1000 nM | IC50 [2, 7]: < 100 nM | IC50 [3]: 100 to 1000 nM | IC50 [4]: 100 to 1000 nM | IC50 ([5]; GP2d): < 100 nM | IC50 [6]: 100 to 1000 nM

N#Cc1c(N)sc2c(F)ccc(-c3c(C(F)(F)F)cc4c(N5CCN6C(=O)OCC6C5)nc(OCC56CCCN5CC(F)C6)nc4c3F)c12 (stereo not drawn) [Compound 428]
IC50 [1]: 1000 to 10000 nM | IC50 [2, 7]: < 100 nM | IC50 [3]: 1000 to 10000 nM | IC50 [4]: 1000 to 10000 nM | IC50 ([5]; GP2d): < 100 nM | IC50 [6]: 100 to 1000 nM

C[C@]1(CO)CCN1c1nc(OC[C@@]23CCCN2C[C@H](F)C3)nc2c(F)c(-c3ccc(F)c4sc(N)c(C#N)c34)c(C(F)(F)F)cc12 [Compound 429]
IC50 [1]: 100 to 1000 nM | IC50 [2, 7]: < 100 nM | IC50 [3]: 1000 to 10000 nM | IC50 [4]: 1000 to 10000 nM | IC50 ([5]; GP2d): < 100 nM | IC50 [6]: 1000 to 10000 nM

N#Cc1c(N)sc2c(F)ccc(-c3c(C(F)(F)F)cc4c(N5CCN6C(=O)CCC6C5)nc(OCC56CCCN5CC(F)C6)nc4c3F)c12 (stereo not drawn) [Compound 430]
IC50 [1]: 100 to 1000 nM | IC50 ([2]; SW620 (KRAS G12V) cells): < 100 nM | IC50 [3]: 100 to 1000 nM | IC50 [4]: 1000 to 10000 nM | IC50 [5]: < 100 nM | IC50 [6]: 100 to 1000 nM
